In patent US20080200519A1, “TETRAHYDRONAPHTHALENYLAMIDES, A PROCESS FOR THEIR PRODUCTION AND THEIR USE AS ANTI-INFLAMMATORY AGENTS” (priority 2007, published 2008):
pIC50: −log10 of the molar value.

Assays:
[1] = molecular target: T1, mineral corticoid receptor (MR) (Homo sapiens, UniProt P08235); experiment: binding to recombinantly produced mineral corticoid receptor
T1 construct: made in house
T1 sequence (P08235 1-984): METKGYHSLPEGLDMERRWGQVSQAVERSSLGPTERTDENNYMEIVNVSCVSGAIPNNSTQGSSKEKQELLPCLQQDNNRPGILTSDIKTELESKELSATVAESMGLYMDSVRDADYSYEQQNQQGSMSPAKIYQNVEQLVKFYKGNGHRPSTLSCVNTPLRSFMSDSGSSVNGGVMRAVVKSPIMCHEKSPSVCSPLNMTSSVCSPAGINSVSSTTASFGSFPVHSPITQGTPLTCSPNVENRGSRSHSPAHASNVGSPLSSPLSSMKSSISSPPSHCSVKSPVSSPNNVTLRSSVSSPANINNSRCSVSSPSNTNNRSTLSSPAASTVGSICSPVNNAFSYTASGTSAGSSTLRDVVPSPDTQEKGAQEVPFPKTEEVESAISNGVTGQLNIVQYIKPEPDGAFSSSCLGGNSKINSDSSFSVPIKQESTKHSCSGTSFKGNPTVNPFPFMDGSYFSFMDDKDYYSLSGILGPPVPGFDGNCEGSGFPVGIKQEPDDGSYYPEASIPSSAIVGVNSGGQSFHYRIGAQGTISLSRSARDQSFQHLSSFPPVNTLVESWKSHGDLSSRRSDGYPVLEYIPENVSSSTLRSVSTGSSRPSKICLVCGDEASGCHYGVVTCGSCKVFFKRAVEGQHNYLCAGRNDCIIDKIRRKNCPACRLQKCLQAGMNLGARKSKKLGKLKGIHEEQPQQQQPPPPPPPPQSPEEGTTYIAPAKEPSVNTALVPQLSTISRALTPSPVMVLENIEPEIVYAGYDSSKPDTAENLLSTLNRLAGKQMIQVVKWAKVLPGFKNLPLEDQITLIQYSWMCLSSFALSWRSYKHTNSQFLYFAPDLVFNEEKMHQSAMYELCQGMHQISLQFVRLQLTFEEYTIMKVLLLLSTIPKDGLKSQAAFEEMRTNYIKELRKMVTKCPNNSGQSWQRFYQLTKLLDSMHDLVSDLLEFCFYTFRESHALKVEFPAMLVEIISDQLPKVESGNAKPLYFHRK
Excerpt: (§1) The binding of the substances to the glucocorticoid receptor (GR) and other steroid hormone receptors (mineral corticoid receptor (MR), progesterone receptor (PR) and androgen receptor (AR)) is examined with the aid of recombinantly produced receptors. Cytosol preparations of Sf9 cells, which had been infected with recombinant baculoviruses, which code for the GR, are used for the binding studies. In comparison to reference substance [^3H]-dexamethasone, the substances show a high to very high affinity to GR.

[2] = molecular target: T2, progesterone receptor (PR) (Homo sapiens, UniProt P06401); experiment: binding to recombinantly produced progesterone receptor
T2 construct: made in house
T2 sequence (P06401 1-933): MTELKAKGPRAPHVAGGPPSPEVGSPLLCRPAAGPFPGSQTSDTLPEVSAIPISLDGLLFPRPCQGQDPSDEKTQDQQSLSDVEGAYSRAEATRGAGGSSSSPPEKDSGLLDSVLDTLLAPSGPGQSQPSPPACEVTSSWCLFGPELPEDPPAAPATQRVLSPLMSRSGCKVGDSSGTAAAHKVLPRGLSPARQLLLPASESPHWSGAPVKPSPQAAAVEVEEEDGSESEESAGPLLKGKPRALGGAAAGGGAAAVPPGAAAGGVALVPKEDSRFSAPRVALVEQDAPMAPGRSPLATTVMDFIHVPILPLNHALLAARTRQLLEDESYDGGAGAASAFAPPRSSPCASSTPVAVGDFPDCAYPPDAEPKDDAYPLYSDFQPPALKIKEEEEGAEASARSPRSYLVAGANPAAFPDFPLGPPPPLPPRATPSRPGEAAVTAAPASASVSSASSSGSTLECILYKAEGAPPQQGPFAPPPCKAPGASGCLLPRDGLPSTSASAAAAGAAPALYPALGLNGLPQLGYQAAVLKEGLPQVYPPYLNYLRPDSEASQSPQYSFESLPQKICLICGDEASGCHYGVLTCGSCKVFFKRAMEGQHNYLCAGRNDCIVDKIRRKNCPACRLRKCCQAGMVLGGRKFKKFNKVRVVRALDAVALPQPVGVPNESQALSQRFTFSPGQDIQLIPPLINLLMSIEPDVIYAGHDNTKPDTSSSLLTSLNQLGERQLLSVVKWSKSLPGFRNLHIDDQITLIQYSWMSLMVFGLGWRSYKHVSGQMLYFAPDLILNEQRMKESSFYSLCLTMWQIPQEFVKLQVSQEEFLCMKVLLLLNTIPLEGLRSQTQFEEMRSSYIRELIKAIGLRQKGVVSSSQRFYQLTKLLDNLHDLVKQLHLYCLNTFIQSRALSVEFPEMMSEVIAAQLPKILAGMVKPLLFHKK
Excerpt: as §1

[3] = molecular target: T3, glucocorticoid receptor (GR) (Homo sapiens, UniProt P04150); experiment: binding to recombinantly produced glucocorticoid receptor, cytosol preparations of Sf9 cells, [3H]-dexamethasone as reference; details: recombinant GR
T3 construct: made in house; host or cells: Sf9 cells infected with recombinant baculovirus (cytosol preparation)
T3 sequence (P04150 1-777): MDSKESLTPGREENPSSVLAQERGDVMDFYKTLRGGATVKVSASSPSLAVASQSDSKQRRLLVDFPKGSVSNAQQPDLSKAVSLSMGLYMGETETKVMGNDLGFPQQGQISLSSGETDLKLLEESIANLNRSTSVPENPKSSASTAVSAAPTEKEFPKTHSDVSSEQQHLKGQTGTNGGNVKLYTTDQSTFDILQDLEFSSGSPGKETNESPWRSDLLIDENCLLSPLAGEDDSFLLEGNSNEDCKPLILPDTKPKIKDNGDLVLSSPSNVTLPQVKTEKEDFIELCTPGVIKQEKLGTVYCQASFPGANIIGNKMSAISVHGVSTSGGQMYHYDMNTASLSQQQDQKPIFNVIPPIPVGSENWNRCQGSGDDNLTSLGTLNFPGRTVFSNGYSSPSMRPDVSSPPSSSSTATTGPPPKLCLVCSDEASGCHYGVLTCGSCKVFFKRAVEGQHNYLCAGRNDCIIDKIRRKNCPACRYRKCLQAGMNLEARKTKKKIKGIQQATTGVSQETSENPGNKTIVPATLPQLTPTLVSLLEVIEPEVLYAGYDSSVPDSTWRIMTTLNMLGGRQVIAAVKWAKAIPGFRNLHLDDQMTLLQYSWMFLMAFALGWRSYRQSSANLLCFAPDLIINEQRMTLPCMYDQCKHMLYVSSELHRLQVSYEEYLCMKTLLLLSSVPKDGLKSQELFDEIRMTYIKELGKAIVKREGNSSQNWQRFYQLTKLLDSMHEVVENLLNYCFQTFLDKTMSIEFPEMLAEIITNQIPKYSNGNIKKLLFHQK
Excerpt: as §1

androgen receptor (AR) = molecular target: T4, androgen receptor (AR) (Homo sapiens, UniProt P10275); experiment: binding to recombinantly produced androgen receptor
T4 construct: made in house
T4 sequence (P10275 1-920): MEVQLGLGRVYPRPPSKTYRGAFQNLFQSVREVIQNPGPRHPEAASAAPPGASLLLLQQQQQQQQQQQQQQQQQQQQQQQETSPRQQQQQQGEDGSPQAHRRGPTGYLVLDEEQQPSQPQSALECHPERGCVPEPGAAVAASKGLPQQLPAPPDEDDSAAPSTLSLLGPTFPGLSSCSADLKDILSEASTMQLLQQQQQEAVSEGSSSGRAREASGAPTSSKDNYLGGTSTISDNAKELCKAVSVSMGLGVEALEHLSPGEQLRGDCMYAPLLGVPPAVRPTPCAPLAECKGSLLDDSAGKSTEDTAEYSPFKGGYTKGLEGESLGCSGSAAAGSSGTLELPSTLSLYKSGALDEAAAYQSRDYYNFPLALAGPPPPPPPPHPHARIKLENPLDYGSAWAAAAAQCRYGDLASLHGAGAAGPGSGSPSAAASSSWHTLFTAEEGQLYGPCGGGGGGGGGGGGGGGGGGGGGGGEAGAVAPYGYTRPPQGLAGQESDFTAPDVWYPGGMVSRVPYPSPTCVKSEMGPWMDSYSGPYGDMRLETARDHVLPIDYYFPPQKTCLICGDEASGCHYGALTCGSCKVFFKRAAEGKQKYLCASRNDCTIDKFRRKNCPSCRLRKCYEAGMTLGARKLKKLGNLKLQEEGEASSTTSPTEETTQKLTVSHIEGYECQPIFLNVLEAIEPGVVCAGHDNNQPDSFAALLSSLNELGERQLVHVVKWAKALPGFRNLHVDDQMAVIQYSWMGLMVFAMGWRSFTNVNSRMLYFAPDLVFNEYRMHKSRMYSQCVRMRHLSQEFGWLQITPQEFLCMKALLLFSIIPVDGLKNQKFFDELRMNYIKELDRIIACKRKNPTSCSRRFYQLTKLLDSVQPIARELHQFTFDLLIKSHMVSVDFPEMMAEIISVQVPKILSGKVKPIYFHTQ
Excerpt: as §1

[4] = tested on: secretion of cytokine IL-8 in human monocyte cell line THP-1; experiment: inhibition of LPS-triggered IL-8 secretion in THP-1 cells (ELISA); format: cell-based
Description: The concentration of the cytokines was determined in the supernatant by means of commercially available ELISA kits.

ER = experiment: steroid receptor binding, ER

Structure (SMILES): COc1c(F)ccc2c1C(C)(C)C[C@](O)(C(F)(F)F)[C@H]2NC(=O)c1cnn(-c2ccc(F)cc2F)c1N (relative stereo) [Example 3, 5-Amino-1-(2,4-difluorophenyl)-N-[(cis)-6-fluoro-1,2,3,4-tetrahydro-2-hydroxy-5-methoxy-4,4-dimethyl-2-(trifluoromethyl)naphthalene-1-yl]-1H-pyrazole-4-carboxamide]
- pIC50 [1]: < 6.00
- pIC50 [2]: < 6.00
- pIC50 [3]: 8.22
- pIC50 (androgen receptor (AR)): < 6.00
- pIC50 ([4]; Homo sapiens, read-out: IC50(IL8)): 8.15
- eff. relative to dexamethasone ([4]; IL-8 inhibition): 96%
- pIC50 (ER): < 6.00
